Measurements: patent US9365562B2, “1,3 substituted azetidine PDE10 inhibitors” (Merck Sharp & Dohme Corp., priority 2011, dated 2016)

Target: human PDE10A2 (Homo sapiens (Human), UniProt Q9Y233)
Experiment: PDE10 fluorescence polarization (IMAP FP) inhibition assay
Format: biochemical
Settings: apparent inhibition constant, FAM-labeled cAMP substrate 50 nM, room temperature
Method: The activity of the compounds in accordance with the present invention as PDE10 inhibitors may be readily determined without undue experimentation using a fluorescence polarization (FP) methodology that is well known in the art (Huang, W., et al., J. Biomol Screen, 2002, 7: 215).
In a typical experiment the PDE10 inhibitory activity of the compounds of the present invention was determined in accordance with the following experimental method. PDE10A2 was amplified from human fetal brain cDNA (Clontech, Mountain View, Calif.) using a forward primer corresponding to nucleotides 56-77 of human PDE10A2 (Accession No. AF127480, Genbank Identifier 4894716), containing a Kozak consensus sequence, and a reverse primer corresponding to nucleotides 2406-2413 of human PDE10A2 (Accession No. AF127480, Genbank Identifier 4894716). Amplification with Easy-A polymerase (Stratagene, La Jolla, Calif.) was 95° C. for 2 minutes followed by thirty three cycles of 95° C. for 40 seconds, 55° C. for 30 seconds, and 72° C. for 2 minutes 48 seconds. Final extension was 72° C. for 7 minutes. The PCR product was TA cloned into pcDNA3.2-TOPO (Invitrogen, Carlsbad, Calif.) according to standard protocol. AD293 cells with 70-80% confluency were transiently transfected with human PDE10A2/pcDNA3.2-TOPO using Lipofectamine 2000 according to manufacturer specifications (Invitrogen, Carlsbad, Calif.). Cells were harvested 48 hours post-transfection and lysed by sonication (setting 3, 10×5 sec pulses) in a buffer containing 20 mM HEPES, 1 mM EDTA and protease inhibitor cocktail (Roche). Lysate was collected by centrifugation at 75,000×g for 20 minutes. Supernatant containing the cytoplasmic fraction was used for evaluation of PDE10A2 activity. The fluorescence polarization assay for cyclic nucleotide phosphodiesterases was performed using an IMAP® FP kit supplied by Molecular Devices, Sunnyvale, Calif. (product # R8139). IMAP® technology has been applied previously to phosphodiesterase assays (Huang, W., et al., J. Biomol Screen, 2002, 7: 215). Assays were performed at room temperature in 384-well microtiter plates with an incubation volume of 20.2 μL. Solutions of test compounds were prepared in DMSO and serially diluted with DMSO to yield 8 μL of each of 10 solutions differing by 3-fold in concentration, at 32 serial dilutions per plate. 100% inhibition is determined using a known PDE10 inhibitor, which can be any compound that is present at 5,000 times its Ki value in the assay described as follows, such as papaverine (see Siuciak, et al. Neuropharmacology (2006) 51:386-396; Becker, et al. Behav Brain Res (2008) 186(2):155-60; Threlfell, et al., J Pharmacol Exp Ther (2009) 328(3):785-795), 2-{4-[pyridin-4-yl-1-(2,2,2-trifluoroethyl)-1H-pyrazol-3-yl]phenoxymethyl}quinoline succinic acid or 2-[4-(1-methyl-4-pyridin-4-yl-1H-pyrazol-3-yl)-phenoxymethyl]quinoline succinic acid (see Schmidt, et al. J Pharmacol Exp Ther (2008) 325:681-690; Threlfell, et al., J Pharmacol Exp Ther (2009) 328(3): 785-795). 0% of inhibition is determined by using DMSO (1% final concentrations). A Labcyte Echo 555 (Labcyte, Sunnyvale, Calif.) is used to dispense […] from each well of the titration plate to the 384 well assay plate. A solution of enzyme (1/7000 dilution from aliquots; sufficient to produce 20% substrate conversion) and a separate solution of FAM-labeled cAMP PDE from Molecular Devices (product # R7506), at a final concentration of 50 nM are made in the assay buffer (10 mM Tris HCl, pH 7.2, 10 mM MgCl2, 0.05% NaN3 0.01% Tween-20, and 1 mM DTT). The enzyme is added to the assay plates by the addition of 10 μL of enzyme solution to each well, shaken to mix and incubated at room temperature for 60 minutes. The substrate is then added to the assay plates by the addition of 10 μL of substrate solution to each well, shaken to mix, and incubated at room temperature for 60 minutes. […]

Sequence of human PDE10A2 (Q9Y233 267-1055): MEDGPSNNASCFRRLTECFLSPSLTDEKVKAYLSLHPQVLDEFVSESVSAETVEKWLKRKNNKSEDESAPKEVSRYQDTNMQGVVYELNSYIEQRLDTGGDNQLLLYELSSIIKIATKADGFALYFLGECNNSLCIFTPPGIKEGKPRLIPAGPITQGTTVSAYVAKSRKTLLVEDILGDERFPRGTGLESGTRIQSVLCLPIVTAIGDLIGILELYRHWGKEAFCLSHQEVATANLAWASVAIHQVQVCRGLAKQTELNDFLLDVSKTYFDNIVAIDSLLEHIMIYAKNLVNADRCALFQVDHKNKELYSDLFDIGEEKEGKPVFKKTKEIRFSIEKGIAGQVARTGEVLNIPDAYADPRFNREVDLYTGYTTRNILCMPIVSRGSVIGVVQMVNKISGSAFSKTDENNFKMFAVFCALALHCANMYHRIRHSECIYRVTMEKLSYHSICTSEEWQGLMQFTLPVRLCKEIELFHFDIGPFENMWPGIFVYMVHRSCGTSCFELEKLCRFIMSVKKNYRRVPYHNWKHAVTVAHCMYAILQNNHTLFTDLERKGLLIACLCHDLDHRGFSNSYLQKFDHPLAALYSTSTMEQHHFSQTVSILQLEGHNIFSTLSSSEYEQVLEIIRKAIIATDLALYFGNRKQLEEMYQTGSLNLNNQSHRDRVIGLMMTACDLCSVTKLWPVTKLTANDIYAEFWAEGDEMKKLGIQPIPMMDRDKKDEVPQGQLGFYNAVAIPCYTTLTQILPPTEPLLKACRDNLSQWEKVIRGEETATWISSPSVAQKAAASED

Row | Ki | Structure (SMILES)
1 | 2.7 nM | Cc1nc(N2CC(c3nc4ccccc4n3C)C2)cc(-n2cc(C(F)(F)F)cn2)n1 [Example 16, 1-methyl-2-(1-(2-methyl-6-(4-(trifluoromethyl)-1H-pyrazol-1-yl)pyrimidin-4-yl)azetidin-3-yl)-1H-benzo[d]imidazole]
2 | 6.6 nM | Cc1nc(N2CC(c3nc4ccccc4n3CCO)C2)cc(-n2nc(C)nc2C)n1 [Example 117, 2-(2-(1-(6-(3,5-dimethyl-1H-1,2,4-triazol-1-yl)-2-methylpyrimidin-4-yl)azetidin-3-yl)-1H-benzo[d]imidazol-1-yl)ethanol]
3 | 5.8 nM | Cc1nc(N2CC(c3nc4ccccc4[nH]3)C2)cc(-n2nc(C)nc2C)n1 [Example 107, 2-(1-(6-(3,5-Dimethyl-1H-1,2,4-triazol-1-yl)-2-methylpyrimidin-4-yl)azetidin-3-yl)-1H-benzo[d]imidazole]
4 | 8.5 nM | Cc1nc(N2CC(c3nc4ccccc4n3C)C2)cc(-n2nncc2C)n1 [Example 27, 1-methyl-2-(1-(2-methyl-6-(5-methyl-1H-1,2,3-triazol-1-yl)pyrimidin-4-yl)azetidin-3-yl)-1H-benzo[d]imidazole]
5 | 39 nM | Cc1ccc2nc(C3CN(c4cc(-n5nc(C)nc5C)nc(C)n4)C3)[nH]c2c1 [Example 111, 2-(1-(6-(3,5-dimethyl-1H-1,2,4-triazol-1-yl)-2-methylpyrimidin-4-yl)azetidin-3-yl)-6-methyl-1H-benzo[d]imidazole]
6 | 1.3 nM | COc1nc(-c2ccc(C)cn2)cc(N2CC(c3nc4ccccc4n3C)C2)n1 [Example 96, 2-(1-(2-methoxy-6-(5-methylpyridin-2-yl)pyrimidin-4-yl)azetidin-3-yl)-1-methyl-1H-benzo[d]imidazole]
7 | 75 nM | CC(=O)Nc1ncccc1-c1cc(N2CC(c3nc4ccccc4n3C)C2)nc(C)n1 [Example 83, N-(3-(2-methyl-6-(3-(1-methyl-1H-benzo[d]imidazol-2-yl)azetidin-1-yl)pyrimidin-4-yl)pyridin-2-yl)acetamide]
8 | 0.81 nM | CCc1nc(C)nn1-c1cc(N2CC(c3nc4ccccc4n3C)C2)nc(C)n1 [Example 35, 2-(1-(6-(5-ethyl-3-methyl-1H-1,2,4-triazol-1-yl)-2-methylpyrimidin-4-yl)azetidin-3-yl)-1-methyl-1H-benzo[d]imidazole]
9 | > 75 nM | Cc1nc(N2CC(c3nc4ccc(C(F)(F)F)cc4[nH]3)C2)cc(-n2nc(C)nc2C)n1 [Example 113, 2-(1-(6-(3,5-dimethyl-1H-1,2,4-triazol-1-yl)-2-methylpyrimidin-4-yl)azetidin-3-yl)-6-(trifluoromethyl)-1H-benzo[d]imidazole]
10 | 0.28 nM | CCc1nc(C)nn1-c1cc(N2CC(c3nc4ccccc4n3C)C2)nc(C(F)(F)F)n1 [Example 67, 2-(1-(6-(5-ethyl-3-methyl-1H-1,2,4-triazol-1-yl)-2-(trifluoromethyl)pyrimidin-4-yl)azetidin-3-yl)-1-methyl-1H-benzo[d]imidazole]
11 | 9 nM | CC(=O)c1ccc(-c2cc(N3CC(c4nc5ccccc5n4C)C3)nc(C)n2)nc1 [Example 102, 1-(6-(2-methyl-6-(3-(1-methyl-1H-benzo[d]imidazol-2-yl)azetidin-1-yl)pyrimidin-4-yl)pyridin-3-yl)ethanone]
12 | 7 nM | Cc1nc(N2CC(c3nc4ccccc4n3C)C2)cc(-n2nc(C(F)(F)F)nc2C)n1 [Example 21, 1-methyl-2-(1-(2-methyl-6-(5-methyl-3-(trifluoromethyl)-1H-1,2,4-triazol-1-yl)pyrimidin-4-yl)azetidin-3-yl)-1H-benzo[d]imidazole]
13 | 3.2 nM | COc1cnn(-c2cc(N3CC(c4nc5ccccc5n4C)C3)nc(C)n2)c1 [Example 18, 2-(1-(6-(4-methoxy-1H-pyrazol-1-yl)-2-methylpyrimidin-4-yl)azetidin-3-yl)-1-methyl-1H-benzo[d]imidazole]
14 | 22 nM | Cc1nc(N2CC(c3nc4c(C)cccc4n3C)C2)cc(-n2nc(C)nc2C)n1 [Example 124, 2-(1-(6-(3,5-dimethyl-1H-1,2,4-triazol-1-yl)-2-methylpyrimidin-4-yl)azetidin-3-yl)-1,4-dimethyl-1H-benzo[d]imidazole]
15 | 0.49 nM | COC(=O)CCc1nc(C)nn1-c1cc(N2CC(c3nc4ccccc4n3C)C2)nc(C)n1 [Example 43, methyl 3-(3-methyl-1-(2-methyl-6-(3-(1-methyl-1H-benzo[d]imidazol-2-yl)azetidin-1-yl)pyrimidin-4-yl)-1H-1,2,4-triazol-5-yl)propanoate]
16 | 1.8 nM | Cc1nc(C2CCOCC2)n(-c2cc(N3CC(c4nc5ccccc5n4C)C3)nc(C(F)(F)F)n2)n1 [Example 69, 1-methyl-2-(1-(6-(3-methyl-5-(tetrahydro-2H-pyran-4-yl)-1H-1,2,4-triazol-1-yl)-2-(trifluoromethyl)pyrimidin-4-yl)azetidin-3-yl)-1H-benzo[d]imidazole]
17 | 0.74 nM | Cc1nc(N2CC(c3nc4ccccc4n3C)C2)cc(-n2ccc(C3CC3)n2)n1 [Example 13, 2-(1-(6-(3-cyclopropyl-1H-pyrazol-1-yl)-2-methylpyrimidin-4-yl)azetidin-3-yl)-1-methyl-1H-benzo[d]imidazole]
18 | 5 nM | Cc1nc(N2CC(c3nc4ccccc4n3CCC#N)C2)cc(-n2nc(C)nc2C)n1 [Example 119, 3-(2-(1-(6-(3,5-dimethyl-1H-1,2,4-triazol-1-yl)-2-methylpyrimidin-4-yl)azetidin-3-yl)-1H-benzo[d]imidazol-1-yl)propanenitrile]
19 | 2 nM | Cc1nc(N2CC(c3nc4ccccc4n3C)C2)cc(-n2nc(C)nc2C[C@H](C)O)n1 [Example 40, (S)-1-(3-methyl-1-(2-methyl-6-(3-(1-methyl-1H-benzo[d]imidazol-2-yl)azetidin-1-yl)pyrimidin-4-yl)-1H-1,2,4-triazol-5-yl)propan-2-ol]
20 | 3.1 nM | CCOC(=O)Cc1nc(N2CC(c3nc4ccccc4n3C)C2)cc(-n2nc(C)nc2C)n1 [Example 26, ethyl 2-(4-(3,5-dimethyl-1H-1,2,4-triazol-1-yl)-6-(3-(1-methyl-1H-benzo[d]imidazol-2-yl)azetidin-1-yl)pyrimidin-2-yl)acetate]
21 | 8 nM | Cc1ccc(-c2cc(N3CC(c4nc5ccccc5n4C)C3)nc(C)n2)c(F)n1 [Example 85, 2-(1-(6-(2-fluoro-6-methylpyridin-3-yl)-2-methylpyrimidin-4-yl)azetidin-3-yl)-1-methyl-1H-benzo[d]imidazole]
22 | 0.61 nM | Cc1cnn(-c2cc(N3CC(c4nc5ccccc5n4C)C3)nc(C)n2)c1 [Example 2, 1-methyl-2-(1-(2-methyl-6-(4-methyl-1H-pyrazol-1-yl)pyrimidin-4-yl)azetidin-3-yl)-1H-benzo[d]imidazole]
23 | 6.8 nM | Cc1nc(N2CC(c3nc4ccccc4n3C)C2)cc(-n2nc(C)nc2-c2ccccc2)n1 [Example 49, 1-methyl-2-(1-(2-methyl-6-(3-methyl-5-phenyl-1H-1,2,4-triazol-1-yl)pyrimidin-4-yl)azetidin-3-yl)-1H-benzo[d]imidazole]
24 | 0.53 nM | Cc1cnn(-c2cc(N3CC(c4nc5ccccc5n4C)C3)nc(C3CC3)n2)c1 [Example 6, 2-(1-(2-cyclopropyl-6-(4-methyl-1H-pyrazol-1-yl)pyrimidin-4-yl)azetidin-3-yl)-1-methyl-1H-benzo[d]imidazole]
